Patent publication US7556935B2 (Dana-Farber Cancer Institute, Inc., priority 2001, dated 2009)
Like-named read-outs stand apart in the source and are kept apart here.

Legend:
c-Abl [1] = assay: c-Abl levels in the ER fraction, ER stress; format: cell-based
Description: (§1) Cells were treated with A23187 (Sigma) or Brefeldin A (Sigma).
(§2) Isolation of the ER fraction: Cells were washed with PBS, lysed in homogenization buffer (50 mM Tris-HCl, pH 8.0, 1 mM b-mercaptoethanol, 1 mM EDTA, 0.32 M sucrose and 0.1 mM PMSF), and then centrifuged at 5,000×g for 10 minutes. The supernatant was collected and centrifuged at 105,000×g for 1 hour. […] The resulting supernatant was used as the ER fraction.

MEFs = assay: Apoptosis by sub-G1 DNA in MEFs under ER stress; format: cell-based, mouse; settings: c-Abl−/− cells
Description: Apoptosis assays: DNA content was assessed by staining ethanol-fixed cells with propidium iodide and monitoring by FACScan (Becton-Dickinson).

grp78 = grp78 expression in the ER fraction, ER stress; format: cell-based
Description: as §1, §2

c-Abl [2] = assay: c-Abl targeting to mitochondria under ER stress, immunofluorescence and immunoblot; format: cell-based; settings: mitochondrial fraction
Description: as §1
Digital confocal immunofluorescence microscope: Cells grown on poly-D-lysine coated glass coverslips were fixed (3.7% formaldehyde in PBS, pH 7.4; 10 minutes), permeabilized (0.2% Triton X-100; 10 min), blocked for 30 minutes in media containing serum. After rinsing with PBS, immunostaining was performed by incubating the cells with 50 ng/slide of anti-c-Abl (K-12 rabbit polyclonal; Santa Cruz) and anti-grp-78 (C-20 goat polyclonal; Santa Cruz). For c-Abl and calreticulin staining, cells were incubated first with anti-c-Abl alone for 1 hour followed by blocking for 30 minutes in media containing serum. After washing with PBS, cells were then incubated with anti-calreticulin (rabbit polyclonal; StressGen). Finally, cells were incubated with a 1:250 dilution of CY-3 or Fluorescein (FITC)-conjugated anti-rabbit or anti-goat secondary antibodies (Jackson ImmunoResearch) for 1 hour. Mitochondria were stained with 0.006 ng/slide Mitotracker Green FM (Molecular Probes). Nuclei were stained with 4,6-diamino-2-phenylindole (DAPI; 1 mg/ml in PBS). Coverslips were mounted onto slides with 0.1 M Tris (pH 7.0) in 50% glycerol. Cells were visualized by digital confocal immunofluorescence and images were captured with cooled CCD camera mounted on a Zeiss Axioplan 2 microscope. Images were deconvolved using Slidebook software (Intelligent Imaging Innovations, Inc., Denver, Colo.).
(§3) The supernatant was collected and centrifuged at 10,000×g for 10 minutes. […] Protein concentration was determined by the Bio-Rad protein estimation kit.

c-Abl [3] = assay: Mitochondrial c-Abl kinase activity, GST-Crk(120-225) phosphorylation, ER stress; format: cell-based; settings: anti-c-Abl immunoprecipitates of mitochondrial fraction
Description: as §3
Analysis of c-Abl activity: Cell lysates were prepared as described in Example 1 and subjected to immunoprecipitation with anti-c-Abl (K-12; Santa Cruz). The immunoprecipitates were resuspended in kinase buffer (see Example 1) containing […] of [g-32P]ATP and GST-Crk(120-225) or GST-Crk(120-212) for 15 minutes at 30° C. The reaction products were analyzed by SDS-PAGE and autoradiography.

c-Abl [4] = assay: c-Abl levels in cytoplasmic and nuclear fractions, ER stress; format: cell-based
Source text: Isolation of cytoplasmic and nuclear fractions: The cytoplasmic and nuclear fractions were isolated as described in Example 1.

c-Abl [5] = assay: c-Abl immune complex kinase assay, phosphorylation of GST-Crk(120-225), COS7 cells; format: cell-based
Description: (§4) Cell culture: COS7 cells and mouse embryonic fibroblasts (MEFs) derived from wild-type and c-Abl^−/− mice were cultured in Dulbecco's modified Eagle's medium containing 10% heat-inactivated fetal calf serum, 2 mM L-glutamine, 100 units/ml penicillin and 100 μg/ml streptomycin. DLD1 cells were grown as described (Polyak et al. (1997) Nature 389, 300-305). Cells were treated with H2O2 (Sigma), 30 mM N-acetyl-L-cysteine (NAC; Sigma) or 10 μM cis-platinum (Sigma).
(§5) Analysis of kinase activity: Cell lysates were prepared in lysis buffer (10 mM Tris-HCl, pH 7.5, 10 mM NaCl, 1 mM DTT, 0.1 mM EDTA, 3 mM MgCl2, 0.5 mM PMSF, 5 μg/ml leupeptin) containing 0.5% Nonidet P-40 and subjected to immunoprecipitation as described (Kharbanda et al. (1997) Nature 386, 732-735) with anti-c-Abl (sc-23; Santa Cruz) or mouse IgG (Santa Cruz). The immunoprecipitates were resuspended in kinase buffer (20 mM HEPES, pH 7.4, 10 mM MgCl2, 10 mM MnCl2) containing 2.5 μCi [g-32P]ATP and GST-Crk(120-225) or GST-Crk(120-212) for 20 minutes at 30° C. Anti-PKCd (sc-937; Santa Cruz) and anti-ERK1 (sc-93; Santa Cruz) immunoprecipitates were analyzed by using histone H1 and myelin basic protein (Upstate Biotecnology Inc.), respectively, as substrates. The reaction products were analyzed by SDS-PAGE and autoradiography.

c-Abl [6] = assay: c-Abl translocation to mitochondria in MEFs, oxidative stress; format: cell-based, mouse
Description: Cells were treated with 1 mM H2O2 (Sigma) and 30 mM N-acetyl-L-cysteine (NAC; Sigma). Transient transfections were performed in the presence of calcium phosphate.
Immunofluorescence microscopy: Cells were plated onto poly D-lysine coated glass coverslips 1 day prior to H2O2 treatment (1 hour) and then fixed with 3.7% formaldehyde/PBS (pH 7.4) for 10 minutes. Cells were washed with PBS, permeabilized with 0.2% Triton X-100 for 10 minutes, washed again and incubated for 30 minutes in complete medium. The coverslips were then incubated with […] of anti-c-Abl (K-12) for 1 hour followed by Texas Red-goat anti-rabbit Ig (H+L) conjugate (Molecular Probes, Eugene, Oreg.). Mitochondria were stained with 100 nM Mitotracker Green FM (Molecular Probes, OR). Nuclei were stained with 4,6-diamino-2-phenylindole (DAPI; 1 mg/ml in PBS). Coverslips were mounted onto slides with 0.1 M Tris (pH 7.0) in 50% glycerol. Cells were visualized by digital confocal immunofluorescence and images were captured with a cooled CCD camera mounted on a Zeiss Axioplan 2 microscope. Images were deconvolved using Slidebook software (Intelligent Imaging Innovations, Inc., Denver, Colo.).
Protein concentration was determined by the Bio-Rad protein estimation kit.
Preparation of cell lysates: Whole cell lysates (WCL) were prepared as described (Kharbanda et al. (1995) Nature 376, 785-788) and analyzed for protein concentration.
Immunoprecipitation and immunoblot analysis. Soluble proteins ([…]) were incubated with anti-c-Abl (K-12; Santa Cruz Biotechnology) for 1 hour and precipitated with protein A-sepharose for 30 minutes. Immunoprecipitates and lysates ([…]) were resolved by SDS-PAGE and analyzed by immunoblotting with anti-c-Abl (24-11; Santa Cruz), anti-HSP60 (Stressgen, Victoria, British Columbia), anti-b-actin (Sigma) anti-PCNA (Calbiochem), anti-PDGF receptor (Oncogene) and anti-PKCd (Santa Cruz).

PKCd [7] = biological target: PKCd (Mus musculus, UniProt P28867); parameters: effect on H2O2-induced translocation of PKCd to mitochondria: dose or concentration left out as unconfirmed; settings: NIH3T3 cells
Sequence of PKCd (Mus musculus, UniProt P28867) (P28867 whole entry): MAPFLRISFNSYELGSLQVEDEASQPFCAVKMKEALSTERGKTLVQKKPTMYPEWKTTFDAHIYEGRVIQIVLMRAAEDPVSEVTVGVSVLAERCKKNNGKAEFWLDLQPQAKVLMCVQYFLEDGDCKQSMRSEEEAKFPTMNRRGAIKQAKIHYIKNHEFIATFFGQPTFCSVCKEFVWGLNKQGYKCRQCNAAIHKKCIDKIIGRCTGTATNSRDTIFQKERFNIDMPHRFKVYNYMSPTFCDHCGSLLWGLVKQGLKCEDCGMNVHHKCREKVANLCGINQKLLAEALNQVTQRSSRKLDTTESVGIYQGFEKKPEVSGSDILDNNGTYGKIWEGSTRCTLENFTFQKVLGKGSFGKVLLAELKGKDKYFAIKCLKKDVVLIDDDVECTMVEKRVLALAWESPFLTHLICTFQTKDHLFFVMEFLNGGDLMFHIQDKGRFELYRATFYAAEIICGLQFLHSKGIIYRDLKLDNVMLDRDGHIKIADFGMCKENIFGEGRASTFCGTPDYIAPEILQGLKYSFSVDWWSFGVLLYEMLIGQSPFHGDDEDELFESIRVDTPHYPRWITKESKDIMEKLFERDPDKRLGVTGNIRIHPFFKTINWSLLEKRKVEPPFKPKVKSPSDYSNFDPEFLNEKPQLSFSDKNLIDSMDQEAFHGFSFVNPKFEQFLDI
Description: (§6) Transfections were performed with Superfect (Qiagen).
(§7) The supernatants (S1) were collected.

c-Abl [8] = assay: c-Abl activity in cytoplasts devoid of nuclei; format: cell-based
Description: as §5

cytochrome c [9] = assay: Cytochrome c release in U-937 cells, immunoblot of cytoplasmic fractions; format: cell-based, human; settings: for cytochrome c release: U-937 cells, agent alone; for effect on H2O2-induced release of cytochrome c: U-937 cells pretreated with NAC (30 mM) or rottlerin (10 µM)
Description: (§8) Cells were also treated with 10 μM rottlerin (Calbiochem).
as §6
(§9) The cells were disrupted by Douce homogenization.

[10] = test system: mitochondrial transmembrane potential; assay: Mitochondrial transmembrane potential, Rhodamine 123 staining, MEFs; parameters: effect on H2O2-induced change in Ψ: dose or concentration left out as unconfirmed
PKCζ = assay: Cytoplasmic or mitochondrial PKCζ levels in U-937 cells, immunoblot
PKCγ = PKCγ (Homo sapiens, UniProt P05129); assay: Cytoplasmic or mitochondrial PKCγ levels in U-937 cells, immunoblot
ATP levels = settings: wild-type and c-Abl+ cells, H2O2
Description: Quantitation of ATP: ATP levels were measured using an ATP Determination Kit (Molecular Probes).

PKCd [11] = biological target: T1, PKCd (Homo sapiens, UniProt Q05655); assay: PKCd translocation to mitochondria in U-937 cells, immunoblot of fractions; format: cell-based; parameters: subjecting cytoplasmic and mitochondrial fractions to immunoblotting with anti-PKC antibodies; endogenous in cells; host or cells: U-937
T1 sequence (Q05655 whole entry): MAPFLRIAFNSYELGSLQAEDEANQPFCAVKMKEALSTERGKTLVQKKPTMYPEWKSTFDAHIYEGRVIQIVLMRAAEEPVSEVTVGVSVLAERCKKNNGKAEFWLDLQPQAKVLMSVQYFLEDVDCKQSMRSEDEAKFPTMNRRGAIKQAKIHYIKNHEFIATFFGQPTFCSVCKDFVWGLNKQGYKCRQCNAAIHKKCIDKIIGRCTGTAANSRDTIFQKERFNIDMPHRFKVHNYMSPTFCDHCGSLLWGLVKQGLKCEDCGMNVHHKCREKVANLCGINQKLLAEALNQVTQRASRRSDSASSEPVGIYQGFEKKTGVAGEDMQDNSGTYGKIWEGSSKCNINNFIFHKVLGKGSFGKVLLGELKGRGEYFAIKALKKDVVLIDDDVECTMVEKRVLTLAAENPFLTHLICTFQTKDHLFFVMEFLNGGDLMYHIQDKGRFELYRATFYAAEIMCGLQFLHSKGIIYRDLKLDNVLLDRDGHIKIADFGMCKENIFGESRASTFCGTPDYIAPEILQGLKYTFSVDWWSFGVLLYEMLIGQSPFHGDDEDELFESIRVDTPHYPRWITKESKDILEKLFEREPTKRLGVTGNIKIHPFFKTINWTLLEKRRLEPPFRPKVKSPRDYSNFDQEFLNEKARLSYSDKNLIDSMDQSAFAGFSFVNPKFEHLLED
Description: as §8
Mitochondria were stained with 0.006 ng/slide of Mitotracker Green FM (Molecular Probes). The slides were analyzed using a Zeiss Auxiphot fluorescence microscope coupled to a CCD camera and a power Macintosh 8100. Image analysis was performed using the IPLab Spectrum 3.1 software (Signal Analytics).
as §6, §9, §7
Mitochondria were stained with 0.006 ng/slide of Mitotracker Green FM (Molecular Probes). The slides were analyzed with a Zeiss Auxiphot fluorescence microscope coupled to a CCD camera and a power Macintosh 8100. Image analysis was performed using the IPLab Spectrum 3.1 software (Signal Analytics).

MCF-7/neo cells = assay: Apoptosis by sub-G1 DNA content in MCF-7/neo cells
cytochrome c [12] = settings: wild-type MEFs
Description: as §4

PKCd [13] = biological target: T1, PKCd; settings: MCF-7 cells, TPA
Description: Cell culture and reagents: Human U-937 myeloid leukemia cells (ATCC, Rockville, Md.) were grown in RPMI 1640 medium supplemented with 10% heat-inactivated fetal bovine serum (FBS), 100 units/ml penicillin, 100 μg/ml streptomycin, and 2 mM L-glutamine. MCF-7, MCF-7/neo, MCF-7/PKCdRD and 293T cells were grown in Dulbecco's modified Eagle's medium (DMEM) containing 10% FBS. […] Cells were also treated with 10 μM rottlerin (Calbiochem).

catalase = assay: Catalase levels in MEFs; format: cell-based, mouse
Source text: As a control, degradation was inhibited when [g-S]ATP was substituted for ATP to prevent ubiquitination. […] Lactacystin, another proteosome inhibitor, was used to assess degradation of catalase in cells.

U-937 cells = assay: Apoptosis by sub-G1 DNA content in U-937 cells; format: cell-based, human

C[C@H]1CCC/C=C/[C@@H]2C[C@H](O)C[C@H]2[C@H](O)/C=C/C(=O)O1 [Brefeldin A]
c-Abl levels in the ER fraction (c-Abl [1]): decreases
induction of apoptosis (MEFs): abrogated
expression of grp78 (grp78): increases in grp78
c-Abl protein in the mitochondrial fraction, immunoblot (c-Abl [2]): increases in c-Abl protein
mitochondrial c-Abl activity (c-Abl [3]): increases in mitochondrial c-Abl activity
c-Abl levels in the cytoplasm or nucleus (c-Abl [4]): no detectable effect

OO [H2O2, hydrogen peroxide]
stimulation of the Crk kinase activity of anti-c-Abl immunoprecipitates (c-Abl [5]; COS7 cells exposed to H2O2, GST-Crk(120-225) substrate): 4-5 fold
time of maximal induction of c-Abl activity (c-Abl [5]; H2O2 exposure): 30 to 60 min
induction of c-Abl activity (c-Abl [5]; exposure to 1 mM H2O2): 5 fold
total c-Abl that localizes to mitochondria (c-Abl [6]; MEFs following H2O2, approximately 4% without treatment): approximately 20%
increase in mitochondrial c-Abl protein, densitometric scanning (c-Abl [6]; MEFs, 0.5 to 1 hour of H2O2 treatment): > 5 fold
localization of PKCd to mitochondria (PKCd [7]; H2O2): localization of PKCd to mitochondria
c-Abl activity in cytoplasts (c-Abl [8]): induction of c-Abl activity
cytochrome c release (cytochrome c [9]): induces cytochrome c release
mitochondrial transmembrane potential (Ψ) ([10]; wild-type cells, H2O2): substantially diminished
mitochondrial levels of PKCζ (PKCζ; H2O2): little if any effect
mitochondrial levels of PKCγ (PKCγ; H2O2): little if any effect
ATP levels (ATP levels): depletion of ATP
mitochondrial PKCd (PKCd [11]; 1 mM H2O2): increases in mitochondrial PKCd
apoptosis (MCF-7/neo cells): induction of apoptosis
cytochrome c in cytoplasmic lysates (cytochrome c [12]): increased levels of cytochrome c

CC(=O)N[C@@H](CS)C(=O)O [NAC, N-acetyl-L-cysteine]
effect on H2O2-induced phosphorylation of GST-Crk(120-225) by c-Abl (c-Abl [5]; 30 mM NAC): inhibited
effect on H2O2-induced translocation of c-Abl to mitochondria (c-Abl [6]; MEFs): inhibited
effect on H2O2-induced release of cytochrome c (cytochrome c [9]): blocks
effect on H2O2-induced localization of PKCd to mitochondria (PKCd [11]; 30 mM NAC): inhibits

CCCCCCCCCCCCCC(=O)O[C@@H]1[C@@H](C)[C@@]2(O)[C@@H](C=C(CO)C[C@]3(O)C(=O)C(C)=C[C@@H]23)[C@H]2C(C)(C)[C@]12OC(C)=O [TPA]
translocation of PKCd to mitochondria (PKCd [13]): translocates to mitochondria
cytochrome c release (cytochrome c [9]): cytochrome c release
cytoplasmic or mitochondrial levels of PKCζ (PKCζ; TPA): no detectable effect
cytoplasmic or mitochondrial levels of PKCγ (PKCγ; TPA): no detectable effect
translocation of PKCd to mitochondria (PKCd [11]; 250 nM TPA, 100 nM bryostatin, 0.5 units/ml PLC, 10 μM DOG): increases in mitochondrial PKCd
percent PKCd translocation to mitochondria (PKCd [11]; 250 nM TPA, scanned immunoblots): approximately 40%
apoptosis (MCF-7/neo cells): induction of apoptosis

N.N.[Cl][Pt][Cl] [cisplatin, cis-platinum]
c-Abl activity in cytoplasts (c-Abl [8]): no detectable effect

CC(=O)N[C@@H](CSC(=O)[C@]1([C@@H](O)C(C)C)NC(=O)[C@H](C)[C@@H]1O)C(=O)O [lactacystin]
catalase levels (catalase; c-abl−/−arg−/− cells): little if any effect
catalase levels (catalase; wild-type MEFs): increase in catalase levels

CC(=O)c1c(O)c(C)c(O)c(Cc2c(O)c3c(c(C(=O)/C=C/c4ccccc4)c2O)OC(C)(C)C=C3)c1O [rottlerin]
effect on H2O2-induced translocation of c-Abl to mitochondria (c-Abl [6]; MEFs): inhibited
constitutive levels of mitochondrial c-Abl (c-Abl [6]; MEFs, rottlerin alone): no effect
effect on H2O2-induced translocation of PKCd to mitochondria (PKCd [7]; rottlerin): inhibits
effect on H2O2-induced release of cytochrome c (cytochrome c [9]): blocked
effect on TPA-induced cytochrome c release (cytochrome c [9]; U-937 cells pretreated with rottlerin before TPA): significantly blocks
cytochrome c release (cytochrome c [9]): detectable release of cytochrome c
apoptosis, sub-G1 DNA content (U-937 cells; rottlerin alone): low level of apoptosis
effect on apoptotic response to TPA (U-937 cells; rottlerin and TPA): significantly attenuated
effect on TPA-induced localization of PKCd to mitochondria (PKCd [11]; 10 μM rottlerin): abrogated

cyclosporin A
effect on H2O2-induced change in Ψ ([10]; wild-type MEFs pretreated with cyclosporin A): abrogated
